Measurements reported in patent US20100048617A1, “COMPOUNDS” (SmithKline Beecham Corp., priority 2006, published 2010).
Structures can show the parent of a compound that is named as a salt.

Target: T1, SCD (SCD-containing rat microsomes) (Rattus norvegicus, UniProt P07308)
T1 construct: SCD-containing rat microsomes (2 μg protein); from tissue
T1 sequence (P07308 1-358): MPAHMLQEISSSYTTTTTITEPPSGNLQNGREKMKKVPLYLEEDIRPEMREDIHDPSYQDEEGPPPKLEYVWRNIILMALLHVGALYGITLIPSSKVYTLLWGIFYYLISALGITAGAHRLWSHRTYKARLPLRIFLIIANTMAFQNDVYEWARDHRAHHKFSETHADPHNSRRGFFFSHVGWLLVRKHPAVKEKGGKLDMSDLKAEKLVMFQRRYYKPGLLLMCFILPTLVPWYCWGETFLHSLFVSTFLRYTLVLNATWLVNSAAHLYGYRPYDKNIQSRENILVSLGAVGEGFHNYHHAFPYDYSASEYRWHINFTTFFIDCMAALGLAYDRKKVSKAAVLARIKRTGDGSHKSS
Assay: in vitro assay for SCD activity based on production of [3H]H2O from [9,10-3H] stearoyl Coenzyme A
Format: biochemical
Settings: SCD-containing rat microsomes (2 μg protein), substrate 1 μM, 6 min incubation, 5 min preincubation with compound; read-out: average pIC50 value (converted)
Experimental: The compounds of the present invention may be analysed in vitro for SCD activity using an assay based on the production of [^3H]H2O, which is released during the enzyme-catalyzed generation of the monounsaturated fatty acyl CoA product. The assay is performed in a 96-well filtration plates. The titrated substrate used in the assay is the [9,10-^3H] stearoyl Coenzyme A. After incubation for 6 minutes of SCD-containing rat microsomes (2 μg protein) and substrate (1 μM), the labelled fatty acid acyl-CoA species and microsomes are absorbed with charcoal and separated from [^3H]H2O by centrifugation. The formation of [^3H]H2O is used as a measure of SCD activity. Compounds at concentrations starting at 10 μM to 0.1 nM or vehicle (DMSO) are preincubated for 5 minutes with the microsomes before addition of the substrate. The concentration-responses are fitted with sigmoidal curves to obtain IC50 values.

| SMILES | IC50 |
| --- | --- |
| COc1ccc(Cl)cc1Cn1nc(C(=O)Nc2ccc3c(c2)CCNC3)cc1C [1-{[5-chloro-2-(methyloxy)phenyl]methyl}-5-methyl-N-(1,2,3,4-tetrahydro-6-isoquinolinyl)-1H-pyrazole-3-carboxamide hydrochloride] | 3.16 to 10 µM |
| COc1ccc(OCC(C)C)c(Cn2nc(C(=O)Nc3ccc4c(c3)CCNC4)cc2C)c1 [5-methyl-1-({5-(methyloxy)-2-[(2-methylpropyl)oxy]phenyl}methyl)-N-(1,2,3,4-tetrahydro-6-isoquinolinyl)-1H-pyrazole-3-carboxamide hydrochloride] | > 10 µM |
